The record followed here is patent US12466831B2, “Substituted amino triazolopyrimidine and amino triazolopyrazine adenosine receptor antagonists, pharmaceutical compositions and their use” (Merck Sharp & Dohme LLC, priority 2018, dated 2025).

Some results are limits rather than exact numbers.

In test [1] the target is T1, human A2a adenosine receptor (Homo sapiens, UniProt P29274).
T1 construct: purchased Perkin Elmer RBHA2aM400UA; host or cells: HEK293 or CHO cells (recombinant expression)
Description: A2a binding affinity using radioligand binding, Method (A). The note with it: Method (A): [3H]SCH58261 filtration binding, membranes expressing human A2a. From the text: (§1) Method (A) describes the procedure used to measure A2a binding affinity using radioligand binding. Method (B) describes the procedure used to measure A2a binding affinity using SPA technology. The method used to measure A2b binding affinity is also described below. The method used to determine the A2a IC50 value reported for each compound in the table is indicated next to the reported value. The A2b IC50 value measured using the A2b binding affinity assay is shown in the table next to the compound under the corresponding A2a value.
The A2a receptor affinity binding assay measured the amount of binding of a tritiated ligand with high affinity for the A2a adenosine receptor to membranes made from HEK293 or CHO cells recombinantly expressing the human A2a adenosine receptor, in the presence of varying concentrations of a compound of the invention. The data were generated using either filtration binding or a homogenous scintillation proximity assay (SPA).
Method (A): Measurement of A2a Binding Affinity Using Radioligand Binding
148 μL (5 μg/mL) membranes (Perkin Elmer, Cat. No. RBHA2aM400UA) and 2 μL compounds of the invention to be tested (test compound) were transferred to individual wells of a 96-well polypropylene assay plate and incubated for 15 to 30 minutes at room temperature. [^3H] SCH58261 ((7-(2-phenylethyl)-5-amino-2-(2-furyl)-pyrazolo-[4,3-e]-1,2,4-triazolo[1,5-c]pyrimidine)) was diluted in assay buffer (50 mM Tris pH 7.4, 10 mM MgCl2, 0.005% Tween20) to a concentration of 4 nM and 50 μL transferred to each well of the assay plate. To define total and non-specific binding, wells containing 1% DMSO and 1 μM ZM241385 (Tocris Bioscience, Cat. No. 1036) respectively, were also included. The assay plate was incubated at room temperature for 60 minutes with agitation. Using a FilterMate Harvester® (Perkin Elmer), the contents of the assay plate were filtered through a UniFilter-96® PEI coated plate (Perkin Elmer Cat. No. 6005274 or 6005277). Filtering was achieved by aspirating the contents of the assay plate for 5 seconds, then washing and aspirating the contents three times with ice-cooled wash buffer (50 mM Tris-HCl pH 7.4, 150 mM NaCl) and allowing the vacuum manifold to dry the plate for 30 seconds. The filter plate was incubated for at least 1 hour at 55° C. and allowed to dry. The bottom of the filter plate was sealed with backing tape. 40 μL Ultima Gold™ (Perkin Elmer, Cat. No. 6013329) was added to each well of the filter plate and the top of the plate was sealed with TopSeal-A PLUS® clear plate seal (Perkin Elmer, Cat. No. 6050185). The plate was incubated for at least 20 minutes, and then the amount of radioactivity remaining in each well was determined using a TopCount® (Perkin Elmer) scintillation counter. After normalization to total and non-specific binding, the percent effect at each compound concentration was calculated. The plot of percent effect versus the log of compound concentration was analyzed electronically using a 4-parameter logistic fit based on the Levenberg-Marquardt algorithm to generate IC50 values.

Test [2] addresses T2, human A2b adenosine receptor (Homo sapiens, UniProt P29275).
T2 construct: purchased Perkin Elmer ES-013-C; host or cells: HEK293 cells recombinantly expressing the receptor; membranes made from them
T2 sequence (P29275 1-332): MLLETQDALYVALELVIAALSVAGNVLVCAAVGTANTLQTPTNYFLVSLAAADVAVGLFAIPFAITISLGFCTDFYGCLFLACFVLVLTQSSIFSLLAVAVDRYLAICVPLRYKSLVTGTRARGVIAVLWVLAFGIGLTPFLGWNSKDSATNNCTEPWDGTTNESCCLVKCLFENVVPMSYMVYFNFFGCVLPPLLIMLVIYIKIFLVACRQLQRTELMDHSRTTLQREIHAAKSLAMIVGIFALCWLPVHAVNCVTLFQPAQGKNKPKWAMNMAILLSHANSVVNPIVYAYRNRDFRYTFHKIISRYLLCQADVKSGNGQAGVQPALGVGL
Description: A2b binding affinity, radioligand filtration binding assay. The note with it: tritiated proprietary A2b antagonist, HEK293 membranes expressing human A2b.
Source text: as §1
Measurement of A2b Binding Affinity
The reported affinity of the compounds of the invention for the human A2b adenosine receptor was determined experimentally using a radioligand filtration binding assay. This assay measures the amount of binding of a tritiated proprietary A2b receptor antagonist, in the presence and absence of a compound of the invention, to membranes made from HEK293 cells recombinantly expressing the human A2b adenosine receptor (Perkin Elmer, Cat. No. ES-013-C).
148 μL (135 μg/mL) membranes and 2 μL test compounds were transferred to individual wells of a 96-well polypropylene assay plate and incubated for 15 to 30 minutes at room temperature with agitation. Tritiated radioligand was diluted to a concentration of 14 nM in assay buffer (phosphate buffered saline without Magnesium and Calcium, pH 7.4; GE Healthcare Life Sciences, Cat. No. SH30256.01) and then 50 μL of the solution were transferred to each well of the assay plate. To define total and non-specific binding, wells containing 1% DMSO and 20 μM N-ethylcarboxamidoadenosine (Tocris Bioscience, Cat. No. 1691) respectively, were also included. The wells of the assay plate were incubated at room temperature for 60 minutes with agitation, then filtered using a FilterMate Harvester® (Perkin Elmer) or similar equipment through a UniFilter-96® PEI coated plate (Perkin Elmer Cat. No. 6005274 or 6005277). Filtering was achieved by aspirating the contents of the assay plate for 5 seconds, then washing and aspirating the contents three times with ice-cooled wash buffer (assay buffer supplemented with 0.0025% Brij58) and allowing the vacuum manifold to dry the plate for 30 seconds. The filter plate was incubated for at least 1 hour at 55° C. and allowed to dry. The bottom of the filter plate was then sealed with backing tape. 40 μL Ultima Gold™ (Perkin Elmer, Cat. No. 6013329) was added to each well of the filter plate and the top of the plate was sealed with TopSeal-A PLUS® clear plate seal (Perkin Elmer, Cat. No. 6050185). The plates were then incubated for at least 20 minutes, and then the amount of radioactivity remaining in each well was determined using a TopCount® (Perkin Elmer) scintillation counter. After normalization to total and non-specific binding, the percent effect at each compound concentration was calculated. The plot of percent effect versus the log of compound concentration was analyzed electronically using a 4-parameter logistic fit based on the Levenberg-Marquardt algorithm to generate IC50 values.

T1 sequence (P29274 whole entry): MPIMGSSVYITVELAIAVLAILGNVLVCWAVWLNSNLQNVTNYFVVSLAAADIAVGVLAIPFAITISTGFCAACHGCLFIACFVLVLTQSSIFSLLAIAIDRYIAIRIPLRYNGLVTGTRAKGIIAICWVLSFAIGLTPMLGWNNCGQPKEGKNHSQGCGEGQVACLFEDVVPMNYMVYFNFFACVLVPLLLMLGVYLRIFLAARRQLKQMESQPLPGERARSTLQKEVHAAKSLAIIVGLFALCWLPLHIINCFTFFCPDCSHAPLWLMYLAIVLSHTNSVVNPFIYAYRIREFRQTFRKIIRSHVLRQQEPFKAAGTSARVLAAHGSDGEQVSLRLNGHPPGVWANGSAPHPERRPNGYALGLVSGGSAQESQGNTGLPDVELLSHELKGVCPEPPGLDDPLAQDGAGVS

Regarding `Cc1c(-c2ncco2)nc(N)n2nc([C@@H]3CCCN(c4cnn(C5CCOCC5)c4)C3)nc12` [Example 3.6, (R)-8-methyl-7-(oxazol-2-yl)-2-(1-(1-(tetrahydro-2H-pyran-4-yl)-1H-pyrazol-4-yl)piperidin-3-yl)-[1,2,4]triazolo[1,5-c]pyrimidin-5-amine], the figures for the IC50 in test [1] and in test [2] were 0.9 nM and 389 nM, respectively.
In the case of `Cc1c(-c2ncco2)nc(N)n2nc([C@@H]3CCCN(c4cnn(C(C)C)c4)C3)nc12` [Example 3.12, (R)-2-(1-(1-isopropyl-1H-pyrazol-4-yl)piperidin-3-yl)-8-methyl-7-(oxazol-2-yl)-[1,2,4]triazolo[1,5-c]pyrimidin-5-amine], the IC50 in test [1] was 1.2 nM; in test [2], 167 nM.
As for `CCn1cc(N2CCC[C@@H](c3nc4c(C)c(-c5ncco5)nc(N)n4n3)C2)cn1` [Example 3.3, (R)-2-(1-(1-ethyl-1H-pyrazol-4-yl)piperidin-3-yl)-8-methyl-7-(oxazol-2-yl)-[1,2,4]triazolo[1,5-c]pyrimidin-5-amine], the IC50 in test [1] worked out at 0.9 nM; in test [2], 155 nM.
With `Cc1c(-c2ncco2)nc(N)n2nc(C3CCCC(C)(O)C3)nc12` (single isomer, unassigned) [Example 8.3-1, (1-R or S,3-R or S)-3-(5-amino-8-methyl-7-(oxazol-2-yl)-[1,2,4]triazolo[1,5-c]pyrimidin-2-yl)-1-methylcyclohexan-1-ol], the IC50 in test [1] is 7.9 nM; in test [2] it was 5560 nM.
With `Cc1c(-c2cccc(F)c2)nc(N)c2nc(C3CCCC(C)(O)C3)nn12` (single isomer, unassigned) [Example 8.11-1, (1R,3S or 1S,3R or 1R,3R or 1S,3S)-1-3-(8-amino-6-(3-fluorophenyl)-5-methyl-[1,2,4]triazolo[1,5-a]pyrazin-2-yl)-1-methylcyclohexan-1-ol], the IC50 is 132 nM in test [1] and at least 10000 nM in test [2].
As for `Cc1c(-c2ncco2)nc(N)n2nc(C3CCN(CC(F)(F)F)C3)nc12` (racemic) [Example 9.1, (R and S)-8-methyl-7-(oxazol-2-yl)-2-(1-(2,2,2-trifluoroethyl)pyrrolidin-3-yl)-[1,2,4]triazolo[1,5-c]pyrimidin-5-amine], the IC50 in test [1] amounted to 32.3 nM; in test [2], 618 nM.
For `CCn1cc(N2C[C@@H](c3nc4c(C)c(-c5ncco5)nc(N)n4n3)CC[C@H]2C)cn1` [Example 2.15, 2-((3S,6R)-1-(1-ethyl-1H-pyrazol-4-yl)-6-methylpiperidin-3-yl)-8-methyl-7-(oxazol-2-yl)-[1,2,4]triazolo[1,5-c]pyrimidin-5-amine], the IC50 in test [1] is 20 nM; in test [2] it was 2400 nM.
For the compound `Cc1c(-c2ncco2)nc(N)n2nc(C3CCCC(C)(O)C3)nc12` (single isomer, unassigned) [Example 8.2-1, (1-R or S,3-R or S)-3-(5-amino-8-methyl-7-(oxazol-2-yl)-[1,2,4]triazolo[1,5-c]pyrimidin-2-yl)-1-methylcyclohexan-1-ol], the IC50 in test [1] is 30.6 nM; in test [2], 5550 nM.
`Cc1c(-c2ncco2)nc(N)n2nc([C@H]3C[C@@H](c4ccc(C(C)(C)N)cn4)C3)nc12` [Example 2.21, 2-((1,3-cis)-3-(5-(2-aminopropan-2-yl)pyridin-2-yl)cyclobutyl)-8-methyl-7-(oxazol-2-yl)-[1,2,4]triazolo[1,5-c]pyrimidin-5-amine] had an IC50 in test [1] of 26.3 nM.
The same measure, in the same setting: for `Nc1nc(-c2ncco2)cc2nc([C@@H]3CC(F)(F)CN3)nn12` [Example 2.2, (S)-2-(4,4-difluoropyrrolidin-2-yl)-7-(oxazol-2-yl)-[1,2,4]triazolo[1,5-c]pyrimidin-5-amine] the value was 143 nM; for `Cc1c(-c2ncco2)nc(N)n2nc([C@H]3C[C@H](c4ccc(C(C)(C)N)nc4)C3)nc12` [Example 10.6, 2-((1,3-trans)-3-(6-(2-aminopropan-2-yl)pyridin-3-yl)cyclobutyl)-8-methyl-7-(oxazol-2-yl)-[1,2,4]triazolo[1,5-c]pyrimidin-5-amine], 15.7 nM; for `Cc1c(-c2ncco2)nc(N)n2nc([C@H]3C[C@H](c4ccc(C(C)(C)N)cn4)C3)nc12` [Example 2.20, 2-((1,3-trans)-3-(5-(2-aminopropan-2-yl)pyridin-2-yl)cyclobutyl)-8-methyl-7-(oxazol-2-yl)[l,2,4]triazolo[1,5-c]pyrimidin-5-amine], 9.9 nM.
`Cc1c(-c2ncco2)nc(N)n2nc([C@H]3C[C@@H](c4ccc(C(C)(C)O)cn4)C3)nc12` [Example 2.18, 2-(6-((1,3-cis)-3-(5-amino-8-methyl-7-(oxazol-2-yl)-[1,2,4]triazolo[1,5-c]pyrimidin-2-yl)cyclobutyl)pyridin-3-yl)propan-2-ol] returned an IC50 in test [1] of 3.7 nM. Compared with the last compound, the IC50 is about 2.7-fold lower.
Turning to `Nc1nc(-c2ccccc2)cc2nc([C@@H]3CC(F)(F)CN3C(=O)C3CC3)nn12` [Example 4.3, (S)-(2-(5-amino-7-phenyl-[1,2,4]triazolo[1,5-c]pyrimidin-2-yl)-4,4-difluoropyrrolidin-1-yl)(cyclopropyl)methanone], in test [1], the half-maximal inhibitory concentration (IC50) is 14.9 nM. Compared with the last compound, the IC50 is about 4-fold higher.
`Cc1c(-c2ncco2)nc(N)n2nc([C@H]3C[C@H](c4ccc(C(C)(C)O)cn4)C3)nc12` [Example 2.19, 2-(6-((1,3-trans)-3-(5-amino-8-methyl-7-(oxazol-2-yl)-[1,2,4]triazolo[1,5-c]pyrimidin-2-yl)cyclobutyl)pyridin-3-yl)propan-2-ol]: the IC50 in test [1] came out at 5.2 nM.
In turn, `Nc1nc(-c2ccccc2)cc2nc([C@@H]3CC(F)(F)CN3)nn12` [Example 2.1, (S)-2-(4,4-difluoropyrrolidin-2-yl)-7-phenyl-[1,2,4]triazolo[1,5-c]pyrimidin-5-amine] yielded a half-inhibitory concentration (IC50) in test [1] of 12 nM.

For orientation: IC50 means the concentration needed to halve the response being measured. Low values mean greater potency in that assay, high ones weaker potency in that assay.
